Experiments:
[1] = molecular target: T1, RAF-1 (Homo sapiens, UniProt P04049); assay: RAF-1 ELISA phosphorylation assay (RAF-catalyzed phosphorylation of MEK and MAPK); assay type: biochemical; conditions: RAF-1 phosphorylation assay, lysates from RAS/RAF infected Sf9 cells, substrates T-MEK and His-MAPK
T1 construct: made in house; host or cells: Sf9 (Spodoptera frugiperda) cells co-infected with RAS and RAF recombinant baculoviruses
Excerpt: The following assay reports the amount of RAF-catalyzed phosphorylation of its target protein MEK as well as MEK's target MAPK. The RAF gene sequence is described in Bonner et al., 1985, Molec. Cell. Biol. 5: 1400-1407, and is readily accessible in multiple gene sequence data banks. Construction of the nucleic acid vector and cell lines utilized for this portion of the invention are fully described in Morrison et al., 1988, Proc. Natl. Acad. Sci. USA 85: 8855-8859.
• 1. Sf9 (Spodoptera frugiperda) cells; GIBCO-BRL, Gaithersburg, Md. • 2. RIPA buffer: 20 mM Tris/HCl pH 7.4, 137 mM NaCl, 10% glycerol, 1 mM PMSF, 5 mg/L Aprotenin, 0.5% Triton X-100; • 3. Thioredoxin-MEK fusion protein (T-MEK): T-MEK expression and purification by affinity chromatography were performed according to the manufacturer's procedures. Catalog#K 350-01 and R 350-40, Invitrogen Corp., San Diego, Calif. • 4. His-MAPK (ERK 2); His-tagged MAPK was expressed in XL1 Blue cells transformed with pUC18 vector encoding His-MAPK. His-MAPK was purified by Ni-affinity chromatography. Cat#27-4949-01, Pharmacia, Alameda, Calif., as described herein. • 5. Sheep anti mouse IgG: Jackson laboratories, West Grove, Pa. Catalog, #515-006-008, Lot#28563 • 6. RAF-1 protein kinase specific antibody: URP2653 from UBI. • 7. Coating buffer: PBS; phosphate buffered saline, GIBCO-BRL, Gaithersburg, Md. • 8. Wash buffer: TBST-50 mM Tris/HCL pH 7.2, 150 mM NaCl, 0.1% Triton X-100 • 9. Block buffer: TBST, 0.1% ethanolamine pH 7.4 • 10. DMSO, Sigma, St. Louis, Mo. • 11. Kinase buffer (KB): 20 mM Hepes/HC1 pH 7.2, 150 mM NaCl, 0.1% Triton X-100, 1 mM PMSF, 5 mg/L Aprotenin, 75 μM sodium ortho vanadate, 0.5 MM DTT and 10 mM MgCl2. • 12. ATP mix: 100 mM MgCl2, 300 μM ATP, 10 μCi γ-^33P ATP (Dupont-NEN)/mL. • 13 Stop solution: 1% phosphoric acid; Fisher, Pittsburgh, Pa. • 14. Wallac Cellulose Phosphate Filter mats; Wallac, Turku, Finnland. • 15. Filter wash solution: 1% phosphoric acid, Fisher, Pittsburgh, Pa. • 16. Tomtec plate harvester, Wallac, Turku, Finnland. • 17. Wallac beta plate reader #1205, Wallac, Turku, Finnland. • 18. NUNC 96-well V bottom polypropylene plates for compounds Applied Scientific Catalog #AS-72092. Procedure
All of the following steps were conducted at room temperature unless specifically indicated. • 1. ELISA plate coating: ELISA wells are coated with 100 μL of Sheep anti mouse affinity purified antiserum (1 μg/100 μL coating buffer) over night at 4° C. ELISA plates can be used for two weeks when stored at 4° C. • 2. Invert the plate and remove liquid. Add 100 μL of blocking solution and incubate for 30 min. • 3. Remove blocking solution and wash four times with wash buffer. Pat the plate on a paper towel to remove excess liquid. • 4. Add 1 μg of antibody specific for RAF-1 to each well and incubate for 1 hour. Wash as described in step 3. • 5. Thaw lysates from RAS/RAF infected Sf9 cells and dilute with TBST to 10 μg/100 μL. Add 10 μg of diluted lysate to the wells and incubate for 1 hour. Shake the plate during incubation. Negative controls receive no lysate. Lysates from RAS/RAF infected Sf9 insect cells are prepared after cells are infected with recombinant baculoviruses at a MOI of 5 for each virus, and harvested 48 hours later. The cells are washed once with PBS and lysed in RIPA buffer. Insoluble material is removed by centrifugation (5 min at 10,000×g). Aliquots of lysates are frozen in dry ice/ethanol and stored at −80° C. until use. • 6. Remove non-bound material and wash as outlined above (step 3). • 7. Add 2 μg of T-MEK and 2 μg of His-MAEPK per well and adjust the volume to 40 μL with kinase buffer. Methods for purifying T-MEK and MAPK from cell extracts are provided herein by example. • 8. Predilute compounds (stock solution 10 mg/mL DMSO) or extracts 20 fold in TBST plus 1% DMSO. Add 5 μL of the prediluted compounds/extracts to the wells described in step 6. Incubate for 20 min. Controls receive no drug. • 9. […]

[2] = molecular target: T2, EGF Receptor (Homo sapiens, UniProt P00533); assay: EGF Receptor kinase activity in whole cells (EGFR-NIH3T3 assay, EGFR ELISA); assay type: cell-based; conditions: Table 5, EGFR ELISA assay in whole cells (EGFR-NIH3T3); read-out: IC50 A549
T2 construct: expressed in transfected cells; host or cells: NIH3T3 (EGFR-NIH3T3)
T2 sequence (P00533 25-1210): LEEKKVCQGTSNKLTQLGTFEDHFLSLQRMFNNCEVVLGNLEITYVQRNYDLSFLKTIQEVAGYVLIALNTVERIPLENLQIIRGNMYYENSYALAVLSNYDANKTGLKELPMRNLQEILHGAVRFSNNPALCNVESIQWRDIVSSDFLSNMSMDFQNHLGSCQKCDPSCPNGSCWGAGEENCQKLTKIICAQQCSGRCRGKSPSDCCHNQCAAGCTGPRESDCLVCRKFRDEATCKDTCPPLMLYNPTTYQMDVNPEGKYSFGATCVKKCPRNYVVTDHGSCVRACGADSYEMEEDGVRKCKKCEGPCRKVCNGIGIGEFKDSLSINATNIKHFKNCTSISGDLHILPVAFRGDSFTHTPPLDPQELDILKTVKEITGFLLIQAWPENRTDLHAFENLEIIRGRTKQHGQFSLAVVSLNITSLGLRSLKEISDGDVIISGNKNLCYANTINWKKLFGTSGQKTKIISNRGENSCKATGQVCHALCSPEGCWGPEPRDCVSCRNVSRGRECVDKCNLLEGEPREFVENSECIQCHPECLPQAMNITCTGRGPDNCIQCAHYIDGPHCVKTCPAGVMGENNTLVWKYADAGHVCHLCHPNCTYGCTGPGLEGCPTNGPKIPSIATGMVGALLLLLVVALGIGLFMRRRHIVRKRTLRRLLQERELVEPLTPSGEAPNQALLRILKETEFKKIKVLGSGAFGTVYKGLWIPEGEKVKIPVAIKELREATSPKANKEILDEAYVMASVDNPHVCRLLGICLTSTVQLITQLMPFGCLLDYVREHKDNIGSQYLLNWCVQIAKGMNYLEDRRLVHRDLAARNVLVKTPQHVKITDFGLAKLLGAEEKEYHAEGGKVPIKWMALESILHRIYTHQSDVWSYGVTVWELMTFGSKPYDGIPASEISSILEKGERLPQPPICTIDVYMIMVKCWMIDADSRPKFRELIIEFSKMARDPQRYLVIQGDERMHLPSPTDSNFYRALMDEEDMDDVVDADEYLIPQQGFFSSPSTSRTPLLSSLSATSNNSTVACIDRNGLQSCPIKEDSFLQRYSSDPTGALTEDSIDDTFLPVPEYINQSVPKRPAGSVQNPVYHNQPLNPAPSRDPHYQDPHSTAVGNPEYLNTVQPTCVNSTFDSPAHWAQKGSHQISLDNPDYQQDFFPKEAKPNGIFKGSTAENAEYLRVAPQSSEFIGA
Description: EGF Receptor kinase activity (EGFR-NIH3T3 assay) in whole cells was measured as described in detail in PCT Publication WO9640116, filed Jun. 5, 1996, by Tang et al., and entitled “Indolinone Compounds for the Treatment of Disease,” incorporated herein by reference in its entirety, including any drawings.

T1 sequence (P04049 whole entry): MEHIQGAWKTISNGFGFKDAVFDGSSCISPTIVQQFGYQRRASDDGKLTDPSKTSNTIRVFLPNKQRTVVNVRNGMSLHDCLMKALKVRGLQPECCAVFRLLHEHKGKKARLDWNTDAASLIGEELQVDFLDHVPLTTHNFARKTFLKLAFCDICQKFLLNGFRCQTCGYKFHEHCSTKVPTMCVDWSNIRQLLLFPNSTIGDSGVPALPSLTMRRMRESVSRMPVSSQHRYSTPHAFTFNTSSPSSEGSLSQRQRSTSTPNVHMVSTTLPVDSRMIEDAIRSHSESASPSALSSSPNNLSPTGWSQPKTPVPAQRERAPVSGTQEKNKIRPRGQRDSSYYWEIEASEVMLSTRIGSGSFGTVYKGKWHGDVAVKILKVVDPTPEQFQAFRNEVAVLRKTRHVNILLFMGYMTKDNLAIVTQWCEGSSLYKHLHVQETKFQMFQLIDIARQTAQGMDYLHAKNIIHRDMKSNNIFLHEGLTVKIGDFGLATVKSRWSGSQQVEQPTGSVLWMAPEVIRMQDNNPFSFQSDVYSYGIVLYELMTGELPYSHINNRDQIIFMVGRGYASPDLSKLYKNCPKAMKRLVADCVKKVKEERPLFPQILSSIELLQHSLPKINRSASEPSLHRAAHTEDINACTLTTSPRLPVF

Compound	IC50 [1] [µM]	IC50 [2] [µM]
Nc1nc(N)c2c(Oc3ccccc3)cccc2n1 [Compound A-1, 2,4-Diamino-5-phenoxyquinazoline]	0.3	24.6
COc1ccc(Oc2cccc3nc(N)nc(N)c23)cc1 [Compound A-6, 2,4-Diamino-5-(4-methoxyphenoxy)quinazoline]	0.8	> 100
Nc1nc(N)c2c(Oc3ccc(F)cc3)cccc2n1 [Compound A-7, 2,4-Diamino-5-(4-fluorophenoxy)quinazoline]	5.8	> 100
CC(C)(C)c1ccc(Oc2cccc3nc(N)nc(N)c23)cc1 [Compound A-8, 2,4-Diamino-5-(4-tert-butylphenoxy)quinazoline]	> 100	
Cc1ccc(Oc2cccc3nc(N)nc(N)c23)cc1 [Compound A-9, 2,4-Diamino-5-(4-methylphenoxy)quinazoline]	4.5	
COc1ccccc1Oc1cccc2nc(N)nc(N)c12 [Compound A-22, 2,4-Diamino-5-(2-methoxyphenoxy)quinazoline]	20	> 100
COc1cccc(Oc2cccc3nc(N)nc(N)c23)c1 [Compound A-23, 2,4-Diamino-5-(3-methoxyphenoxy)quinazoline]	6.4	17.2
Nc1ncnc2cccc(Oc3ccc(OCc4ccccc4)cc3)c12 [Compound A-28, 4-Amino-5-(4-benzyloxyphenoxy)quinazoline]	0.3	75.1
